Laboratory results taken from US12110294B2, “CD73 compounds” (Gilead Sciences, Inc., priority 2020, dated 2024).

Biological target: T1, CD73 activity in MDA-MB-231-GFP cells (Homo sapiens, UniProt P21589)
T1 construct: endogenous in cells; host or cells: MDA-MB-231-GFP cells
T1 sequence (P21589 27-549): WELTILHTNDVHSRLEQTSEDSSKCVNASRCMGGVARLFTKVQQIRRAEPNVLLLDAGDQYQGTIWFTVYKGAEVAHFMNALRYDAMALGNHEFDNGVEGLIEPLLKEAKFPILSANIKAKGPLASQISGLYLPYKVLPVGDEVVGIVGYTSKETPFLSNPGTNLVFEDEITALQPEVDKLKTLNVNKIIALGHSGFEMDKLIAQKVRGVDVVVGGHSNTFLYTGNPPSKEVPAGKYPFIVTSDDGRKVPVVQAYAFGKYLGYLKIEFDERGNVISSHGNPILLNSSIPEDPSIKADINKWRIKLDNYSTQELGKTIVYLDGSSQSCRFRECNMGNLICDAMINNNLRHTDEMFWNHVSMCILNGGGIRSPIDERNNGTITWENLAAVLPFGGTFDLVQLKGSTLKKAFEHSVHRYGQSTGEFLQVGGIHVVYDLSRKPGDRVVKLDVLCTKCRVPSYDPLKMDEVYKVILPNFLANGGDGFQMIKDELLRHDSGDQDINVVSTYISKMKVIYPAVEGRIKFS
Experiment: MDA-MB-231 Cell Based CD73 Activity Assay (DMEM)
Settings: 3000 cells per well, DMEM medium with 10% human plasma, overnight compound treatment, AMP 200 uM
Protocol: MDA-MB-231 Cell Based CD73 Activity Assay (DMEM) MDA-MB-231-GFP cells were seeded in 384-well plates (Greiner 781946) at a density of 3000 cells per well in 50 μL of DMEM medium with 10% HP (human plasma). Cells were plated into assay plate with compounds pre-spotted, for an overnight compound treatment. 50 uL of 400 uM AMP (final concentration will be 200 uM) was added using Bio-tek dispenser. Plates were incubated for 100 mins. […] The samples were analyzed using Rapid fire.

Row | EC50 [nM] | SMILES
1 | 1.31 | O=C(c1cccc([C@H]2C[C@@H]2c2cc(-c3c[nH]c(=O)[nH]c3=O)nn3ccnc23)c1)N1CC(F)(F)C1 (racemic) [Example 297, 5-(8-((2S,2S)-2-(3-(3,3-difluoroazetidine-1-carbonyl)phenyl)cyclopropyl)imidazo[1,2-b]pyridazin-6-yl)pyrimidine-2,4(1H,3H)-dione]
2 | 21.2 | O=C(c1ccc([C@H]2C[C@@H]2c2cc(-c3c[nH]c(=O)[nH]c3=O)nn3ccnc23)cc1)N1CCC(F)(F)C1 (racemic) [Example 305, 5-(8-((2S,2S)-2-(4-(3,3-difluoropyrrolidine-1-carbonyl)phenyl)cyclopropyl)imidazo[1,2-b]pyridazin-6-yl)pyrimidine-2,4(1H,3H)-dione]
3 | 96.1 | CC1(C)CCN(C(=O)c2ccc([C@H]3C[C@@H]3c3cc(-c4c[nH]c(=O)[nH]c4=O)nn4ccnc34)cc2)C1 (racemic) [Example 307, 5-(8-((2S,2S)-2-(4-(3,3-dimethylpyrrolidine-1-carbonyl)phenyl)cyclopropyl)imidazo[1,2-b]pyridazin-6-yl)pyrimidine-2,4(1H,3H)-dione]
4 | 208 | O=c1[nH]cc(-c2cc([C@H]3C[C@@H]3c3ccccc3OC(F)(F)F)c3nccn3n2)c(=O)[nH]1 (racemic) [Example 309, 5-(8-((1S,2S)-2-(2-(trifluoromethoxy)phenyl)cyclopropyl)imidazo[1,2-b]pyridazin-6-yl)pyrimidine-2,4(1H,3H)-dione]
5 | 11.6 | N#Cc1cncc([C@H]2C[C@@H]2c2cc(-c3c[nH]c(=O)[nH]c3=O)nn3ccnc23)c1 (racemic) [Example 311, 5-((2S,2S)-2-(6-(2,4-dioxo-1,2,3,4-tetrahydropyrimidin-5-yl)imidazo[1,2-b]pyridazin-8-yl)cyclopropyl)nicotinonitrile]
6 | 4.17 | CNC(=O)c1ccc([C@H]2C[C@@H]2c2cc(-c3c[nH]c(=O)[nH]c3=O)nn3c(F)cnc23)cc1 (racemic) [Example 312, 4-((2S,2S)-2-(6-(2,4-dioxo-1,2,3,4-tetrahydropyrimidin-5-yl)-3-fluoroimidazo[1,2-b]pyridazin-8-yl)cyclopropyl)-N-methylbenzamide]
7 | 11.2 | Cc1nc2cc([C@H]3C[C@@H]3c3cc(-c4c[nH]c(=O)[nH]c4=O)nn4ccnc34)ccc2s1 (racemic) [Example 321, 5-(8-((2S,2S)-2-(2-methylbenzo[d]thiazol-5-yl)cyclopropyl)imidazo[1,2-b]pyridazin-6-yl)pyrimidine-2,4(1H,3H)-dione]
8 | 5.5 | O=c1[nH]cc(-c2cc([C@H]3C[C@@H]3c3ccc(OCC(F)(F)F)cn3)c3nccn3n2)c(=O)[nH]1 (racemic) [Example 363, 5-(8-((1S,2S)-2-(5-(2,2,2-trifluoroethoxy)pyridin-2-yl)cyclopropyl)imidazo[1,2-b]pyridazin-6-yl)pyrimidine-2,4(1H,3H)-dione]
9 | 16.4 | O=c1[nH]cc(-c2cc([C@H]3C[C@@H]3c3cnn(C(F)(F)F)c3)c3nccn3n2)c(=O)[nH]1 (racemic) [Example 366, 5-(8-((1S,2S)-2-(1-(trifluoromethyl)-1H-pyrazol-4-yl)cyclopropyl)imidazo[1,2-b]pyridazin-6-yl)pyrimidine-2,4(1H,3H)-dione]
10 | 27.5 | O=c1[nH]cc(-c2cc([C@H]3C[C@@H]3c3ccn(C(F)F)n3)c3nccn3n2)c(=O)[nH]1 (racemic) [Example 369, 5-(8-((1S,2S)-2-(1-(difluoromethyl)-1H-pyrazol-3-yl)cyclopropyl)imidazo[1,2-b]pyridazin-6-yl)pyrimidine-2,4(1H,3H)-dione]
11 | 15.7 | O=c1[nH]cc(-c2cc([C@H]3C[C@@H]3c3cnn(C(F)F)c3)c3ncc(F)n3n2)c(=O)[nH]1 (racemic) [Example 370, 5-(8-((1S,2S)-2-(1-(difluoromethyl)-1H-pyrazol-4-yl)cyclopropyl)-3-fluoroimidazo[1,2-b]pyridazin-6-yl)pyrimidine-2,4(1H,3H)-dione]

Further lines, the compound ahead of its results:

Row | SMILES | EC50 [nM]
12 | O=C(c1cccc([C@H]2C[C@@H]2c2cc(-c3c[nH]c(=O)[nH]c3=O)nn3ccnc23)c1)N1CC(C(F)(F)F)C1 (racemic) [Example 296, 5-(8-((2S,2S)-2-(3-(3-(trifluoromethyl)azetidine-1-carbonyl)phenyl)cyclopropyl)imidazo[1,2-b]pyridazin-6-yl)pyrimidine-2,4(1H,3H)-dione] | 4.38
13 | CC1(C)CN(C(=O)c2cccc([C@H]3C[C@@H]3c3cc(-c4c[nH]c(=O)[nH]c4=O)nn4ccnc34)c2)C1 (racemic) [Example 298, 5-(8-((2S,2S)-2-(3-(3,3-dimethylazetidine-1-carbonyl)phenyl)cyclopropyl)imidazo[1,2-b]pyridazin-6-yl)pyrimidine-2,4(1H,3H)-dione] | 2.81
14 | O=C(c1ccc([C@H]2C[C@@H]2c2cc(-c3c[nH]c(=O)[nH]c3=O)nn3ccnc23)cc1)N1C[C@@H](F)[C@H](F)C1 (racemic) [Example 299] | 24.5
15 | O=C(c1cccc([C@H]2C[C@@H]2c2cc(-c3c[nH]c(=O)[nH]c3=O)nn3ccnc23)c1)N1C[C@@H](F)[C@H](F)C1 (racemic) [Example 300, 5-(8-((2S,2S)-2-(3-((3R,4R)-3,4-difluoropyrrolidine-1-carbonyl)phenyl)cyclopropyl)imidazo[1,2-b]pyridazin-6-yl)pyrimidine-2,4(1H,3H)-dione] | 1.34
16 | O=C(c1ccc([C@H]2C[C@@H]2c2cc(-c3c[nH]c(=O)[nH]c3=O)nn3ccnc23)cc1)N1C[C@@H](F)[C@@H](F)C1 (racemic) [Example 301, 5-(8-((2S,2S)-2-(4-((3S,4R)-3,4-difluoropyrrolidine-1-carbonyl)phenyl)cyclopropyl)imidazo[1,2-b]pyridazin-6-yl)pyrimidine-2,4(1H,3H)-dione] | 19.2
17 | O=C(c1cccc([C@H]2C[C@@H]2c2cc(-c3c[nH]c(=O)[nH]c3=O)nn3ccnc23)c1)N1C[C@@H](F)[C@@H](F)C1 (racemic) [Example 302, 5-(8-((2S,2S)-2-(3-((3S,4R)-3,4-difluoropyrrolidine-1-carbonyl)phenyl)cyclopropyl)imidazo[1,2-b]pyridazin-6-yl)pyrimidine-2,4(1H,3H)-dione] | 6.99
18 | O=C(c1ccc([C@H]2C[C@@H]2c2cc(-c3c[nH]c(=O)[nH]c3=O)nn3ccnc23)cc1)N1CC(F)(F)C(F)(F)C1 (racemic) [Example 303, 5-(8-((1S,2S)-2-(4-(3,3,4,4-tetrafluoropyrrolidine-1-carbonyl)phenyl)cyclopropyl)imidazo[1,2-b]pyridazin-6-yl)pyrimidine-2,4(1H,3H)-dione] | 27.7
19 | O=C(c1cccc([C@H]2C[C@@H]2c2cc(-c3c[nH]c(=O)[nH]c3=O)nn3ccnc23)c1)N1CC(F)(F)C(F)(F)C1 (racemic) [Example 304, 5-(8-((2S,2S)-2-(3-(3,3,4,4-tetrafluoropyrrolidine-1-carbonyl)phenyl)cyclopropyl)imidazo[1,2-b]pyridazin-6-yl)pyrimidine-2,4(1H,3H)-dione] | 3.04
20 | O=C(c1cccc([C@H]2C[C@@H]2c2cc(-c3c[nH]c(=O)[nH]c3=O)nn3ccnc23)c1)N1CCC(F)(F)C1 (racemic) [Example 306, 5-(8-((2S,2S)-2-(3-(3,3-difluoropyrrolidine-1-carbonyl)phenyl)cyclopropyl)imidazo[1,2-b]pyridazin-6-yl)pyrimidine-2,4(1H,3H)-dione] | 1.41
21 | CC1(C)CCN(C(=O)c2cccc([C@H]3C[C@@H]3c3cc(-c4c[nH]c(=O)[nH]c4=O)nn4ccnc34)c2)C1 (racemic) [Example 308, 5-(8-((1S,2S)-2-(3-(3,3-dimethylpyrrolidine-1-carbonyl)phenyl)cyclopropyl)imidazo[1,2-b]pyridazin-6-yl)pyrimidine-2,4(1H,3H)-dione] | 6.47
22 | Cn1ncc2ccc([C@H]3C[C@@H]3c3cc(-c4c[nH]c(=O)[nH]c4=O)nn4ccnc34)cc21 (racemic) [Example 326, 5-(8-((1S,2S)-2-(1-methyl-1H-indazol-6-yl)cyclopropyl)imidazo[1,2-b]pyridazin-6-yl)pyrimidine-2,4(1H,3H)-dione] | 2.66
23 | O=c1[nH]cc(-c2cc([C@H]3C[C@@H]3c3ccc(OC(F)(F)F)cc3)c3nccn3n2)c(=O)[nH]1 (racemic) [Example 359, 5-(8-((1S,2S)-2-(4-(trifluoromethoxy)phenyl)cyclopropyl)imidazo[1,2-b]pyridazin-6-yl)pyrimidine-2,4(1H,3H)-dione] | 22
24 | O=c1[nH]cc(-c2cc([C@H]3C[C@@H]3c3ncc(C(F)(F)F)s3)c3nccn3n2)c(=O)[nH]1 (racemic) [Example 364, 5-(8-((1S,2S)-2-(5-(trifluoromethyl)thiazol-2-yl)cyclopropyl)imidazo[1,2-b]pyridazin-6-yl)pyrimidine-2,4(1H,3H)-dione] | 34
25 | O=c1[nH]cc(-c2cc([C@H]3C[C@@H]3c3cnn(C(F)F)c3)c3nccn3n2)c(=O)[nH]1 (racemic) [Example 368, 5-(8-((2S,2S)-2-(1-(difluoromethyl)-1H-pyrazol-4-yl)cyclopropyl)imidazo[1,2-b]pyridazin-6-yl)pyrimidine-2,4(1H,3H)-dione] | 20.3
